System: NCI-H295R cells
Assay: Gene expression in decitabine-treated NCI-H295R adrenocortical cells
Assay type: cell-based
Settings: human adrenocortical cells; including H19, S100A10, HOPX, ERBB3 and RUNX2
Experimental: Studies were performed on human adrenocortical cells and the effect of decitabine on gene-expression of HTN3, H19, S100A10, FAM129A, HOPX, TAC1, UCHL1, ERBB3, BEGNT5, RUNX2, GJA3, and BGN was evaluated. […] As such, these studies indicate that demethylating agents are agents capable of regulating malignant adrenocortical tumor-related molecules and can be used to treat ACC.

In the case of `Nc1ncn([C@H]2C[C@H](O)[C@@H](CO)O2)c(=O)n1` [Decitabine, 5-azadeoxycytidine], the “Effect on expression of malignant adrenocortical tumor-related molecules” value is reported as “significantly alter the expression”.

Source: US9428813B2, “DNA methylation analysis for the diagnosis, prognosis and treatment of adrenal neoplasms” (The United States of America, as Represented by the …, priority 2012, dated 2016)
